Experimental data from the CheMixHub viscosity set.

Experiment: xn = mol fraction of the nth substance listed

CCNCCO + O
viscosity [mPa·s]
Details	293.15 K	298.15 K	303.15 K	308.15 K	313.15 K	318.15 K	323.15 K
100 kPa, x2 = 0.55	32.2	–	18.1	–	10.9	–	6.98
101 kPa, x1 = 0.0499	–	–	1.968	–	–	–	–
101 kPa, x1 = 0.0998	–	–	3.824	–	–	–	–
101 kPa, x1 = 0.1506	–	–	6.179	–	–	–	–
101 kPa, x1 = 0.2011	–	–	8.652	–	–	–	–
101 kPa, x1 = 0.2982	–	–	13.25	–	–	–	–
101 kPa, x1 = 0.4029	–	–	17.07	–	–	–	–
101 kPa, x1 = 0.4458	–	–	17.98	–	–	–	–
101 kPa, x1 = 0.5051	–	–	18.79	–	–	–	–
101.3 kPa, x1 = 0.0481	2.723	–	1.934	–	1.422	–	1.093
101.3 kPa, x1 = 0.0797	4.52	3.7	3.05	2.56	2.18	1.86	1.62
101.3 kPa, x1 = 0.1001	7.45	–	4.82	–	2.74	–	2
101.3 kPa, x1 = 0.119	7.315	–	4.617	–	3.122	–	2.225
101.3 kPa, x1 = 0.168	11.94	9.26	7.3	5.85	4.78	3.96	3.34
101.3 kPa, x1 = 0.2	–	–	9.31	–	5.5	–	3.68
101.3 kPa, x1 = 0.233	17.55	–	10.33	–	6.544	–	4.39
101.3 kPa, x1 = 0.3001	23.16	–	13.36	–	8.19	–	5.2
101.3 kPa, x1 = 0.4002	28.88	–	16.31	–	10.32	–	6.29
101.3 kPa, x1 = 0.447	31.75	–	17.94	–	10.85	–	6.977
101.3 kPa, x1 = 0.5	–	–	17.86	–	11.49	–	6.88
101.3 kPa, x1 = 0.6001	31.42	–	17.96	–	11.66	–	7.05
101.3 kPa, x1 = 0.7	28.21	–	16.61	–	10.91	–	6.74
101.3 kPa, x1 = 0.8002	23.04	–	14.28	–	9.46	–	6.18
101.3 kPa, x1 = 0.9001	17.51	–	11.45	–	7.8	–	5.19
101.3 kPa, x2 = 0.3547	30.01	–	–	–	10.6	–	6.882
101.33 kPa, x1 = 0.019	1.537	1.336	1.172	1.038	0.927	0.833	0.755
101.33 kPa, x1 = 0.0419	2.508	2.112	1.804	1.559	1.362	1.201	1.068
101.33 kPa, x1 = 0.0686	3.671	3.152	2.613	2.222	1.896	1.643	1.438
101.33 kPa, x1 = 0.1	5.847	4.671	3.798	3.14	–	2.241	1.934

OC[C@@H](O)[C@@H](O)[C@H](O)[C@@H](O)CO + O
Details	viscosity [mPa·s]
293.15 K, 101 kPa, x1 = 0.0142	1.458
303.15 K, 101 kPa, x1 = 0.002	0.8134
303.15 K, 101 kPa, x1 = 0.003592	0.8731
303.15 K, 101 kPa, x1 = 0.004	0.8647
303.15 K, 101 kPa, x1 = 0.006	0.916
303.15 K, 101 kPa, x1 = 0.007154	0.948
303.15 K, 101 kPa, x1 = 0.0078	0.9637
303.15 K, 101 kPa, x1 = 0.008	0.9675
303.15 K, 101 kPa, x1 = 0.0089	0.9962
303.15 K, 101 kPa, x1 = 0.01	1.019
303.15 K, 101 kPa, x1 = 0.012	1.071
303.15 K, 101 kPa, x1 = 0.0122	1.072
303.15 K, 101 kPa, x1 = 0.0135	1.104
303.15 K, 101 kPa, x1 = 0.016	1.175
303.15 K, 101 kPa, x1 = 0.0194	1.277
303.15 K, 101 kPa, x1 = 0.02	1.279
303.15 K, 101 kPa, x1 = 0.0228	1.345
303.15 K, 101 kPa, x1 = 0.024	1.383
303.15 K, 101 kPa, x1 = 0.026	1.436
303.15 K, 101 kPa, x1 = 0.028	1.489
305.15 K, 100 kPa, x1 = 4e-05	0.8093
305.15 K, 100 kPa, x1 = 7e-05	0.8135
308.15 K, 101 kPa, x1 = 0.004	0.7869
308.15 K, 101 kPa, x1 = 0.006	0.8221
308.15 K, 101 kPa, x1 = 0.008	0.8763
308.15 K, 101 kPa, x1 = 0.01	0.9231
308.15 K, 101 kPa, x1 = 0.012	0.9658
308.15 K, 101 kPa, x1 = 0.014	1.008
308.15 K, 101 kPa, x1 = 0.016	1.054
308.15 K, 101 kPa, x1 = 0.018	1.105
308.15 K, 101 kPa, x1 = 0.02	1.147
308.15 K, 101 kPa, x1 = 0.022	1.203
308.15 K, 101 kPa, x1 = 0.024	1.245
308.15 K, 101 kPa, x1 = 0.026	1.291
308.15 K, 101 kPa, x1 = 0.028	1.355
310.15 K, 100 kPa, x1 = 4e-05	0.7489
310.15 K, 100 kPa, x1 = 7e-05	0.7596
313.15 K, 101 kPa, x1 = 0.002	0.6825
313.15 K, 101 kPa, x1 = 0.004	0.7202
313.15 K, 101 kPa, x1 = 0.006	0.7581
313.15 K, 101 kPa, x1 = 0.007154	0.7675
313.15 K, 101 kPa, x1 = 0.0078	0.7956
313.15 K, 101 kPa, x1 = 0.008	0.7961
313.15 K, 101 kPa, x1 = 0.0089	0.815
313.15 K, 101 kPa, x1 = 0.01	0.8344
313.15 K, 101 kPa, x1 = 0.0107	0.834
313.15 K, 101 kPa, x1 = 0.012	0.8728
313.15 K, 101 kPa, x1 = 0.0122	0.8704
313.15 K, 101 kPa, x1 = 0.014	0.9114
313.15 K, 101 kPa, x1 = 0.016	0.9502
313.15 K, 101 kPa, x1 = 0.0169	0.9712
313.15 K, 101 kPa, x1 = 0.0177	0.9777
313.15 K, 101 kPa, x1 = 0.018	0.9891
313.15 K, 101 kPa, x1 = 0.022	1.068
313.15 K, 101 kPa, x1 = 0.0228	1.077
313.15 K, 101 kPa, x1 = 0.024	1.107
313.15 K, 101 kPa, x1 = 0.026	1.147
313.15 K, 101 kPa, x1 = 0.028	1.187
315.15 K, 100 kPa, x1 = 4e-05	0.7083
315.15 K, 100 kPa, x1 = 7e-05	0.7362
318.15 K, 101 kPa, x1 = 0.004	0.6625
318.15 K, 101 kPa, x1 = 0.006	0.6978
318.15 K, 101 kPa, x1 = 0.008	0.7286
318.15 K, 101 kPa, x1 = 0.01	0.7647
318.15 K, 101 kPa, x1 = 0.012	0.796
318.15 K, 101 kPa, x1 = 0.014	0.8293
318.15 K, 101 kPa, x1 = 0.016	0.8716
318.15 K, 101 kPa, x1 = 0.018	0.9013
318.15 K, 101 kPa, x1 = 0.02	0.9433
318.15 K, 101 kPa, x1 = 0.022	0.9822
318.15 K, 101 kPa, x1 = 0.024	1.015
318.15 K, 101 kPa, x1 = 0.026	1.06
318.15 K, 101 kPa, x1 = 0.028	1.089
323.15 K, 101 kPa, x1 = 0.002	0.5854
323.15 K, 101 kPa, x1 = 0.003592	0.5894
323.15 K, 101 kPa, x1 = 0.004	0.6131
323.15 K, 101 kPa, x1 = 0.006	0.6414
323.15 K, 101 kPa, x1 = 0.0078	0.6663
323.15 K, 101 kPa, x1 = 0.008	0.6702
323.15 K, 101 kPa, x1 = 0.0089	0.685
323.15 K, 101 kPa, x1 = 0.01	0.6996
323.15 K, 101 kPa, x1 = 0.0103	0.7078
323.15 K, 101 kPa, x1 = 0.0107	0.6878
323.15 K, 101 kPa, x1 = 0.0112	0.716
323.15 K, 101 kPa, x1 = 0.012	0.7295
323.15 K, 101 kPa, x1 = 0.0122	0.7288
323.15 K, 101 kPa, x1 = 0.014	0.76
323.15 K, 101 kPa, x1 = 0.0142	0.7324
323.15 K, 101 kPa, x1 = 0.015	0.7741
323.15 K, 101 kPa, x1 = 0.016	0.791
323.15 K, 101 kPa, x1 = 0.0169	0.8041
323.15 K, 101 kPa, x1 = 0.0177	0.7979
323.15 K, 101 kPa, x1 = 0.018	0.8226
323.15 K, 101 kPa, x1 = 0.0194	0.8507
323.15 K, 101 kPa, x1 = 0.02	0.8547
323.15 K, 101 kPa, x1 = 0.022	0.8874
323.15 K, 101 kPa, x1 = 0.0228	0.8982
323.15 K, 101 kPa, x1 = 0.024	0.9206
323.15 K, 101 kPa, x1 = 0.026	0.9544
323.15 K, 101 kPa, x1 = 0.028	0.9887
